Source: patent US5972357A, “Healthy foods and cosmetics” (Kikkoman Corporation, priority 1996, dated 1999)
Structures can show the parent of a compound that is named as a salt. Where two headings read alike, the source gives them in different places.

Columns and labels:
bovine serum albumin [1] = details: bovine serum albumin/d-fructose, 120 h, 1000 µM, pH 7.4
Protocol: (§3) A solution containing bovine serum albumin (4 mg/ml), 500 mM D-fructose and 200 mM potassium phosphate buffer (pH 7.4) was aseptically prepared. To the solution was added 0.1 mM of a test substance. The substance insoluble in water was added as an ethanolic solution so as the final concentration of ethanol to be less than 1%. After incubation of these solutions at 37° C. for 5 days, equivalent volume of a cold 10% trichloroacetic acid solution was added to the solution to precipitate proteins. The precipitate was collected by centrifugation, further washed with a cold 5% trichloroacetic acid solution, and dissolved again in a 200 mM potassium phosphate buffer. The solution was diluted appropriately with distilled water, and the fluorescence intensity at 425 nm was measured with an excitation wave length at 350 nm in a fluorescence spectrophotometer (Shimadzu Seisakusho, Ltd.). The inhibition activity was calculated from the following equation.
(§4) Inhibition activity (%)=(Fc-Fs)/(Fc-Fb)×100
(§5) Fs: fluorescence intensity in the presence of test substance;
(§6) Fc: fluorescence intensity in the absence of test substance;
(§7) Fb: fluorescence intensity in the absence of fructose.

[2] = anti-oxidation activity (linoleic acid/β-carotene emulsion, autoxidation); details: 0.0005% test substance, pH 7.0, 25° C., 460 nm; lesser ratio = stronger
Protocol: The anti-oxidation activities was evaluated according to the method by A. Ben Aziz et al. […] That is to say, an emulsion of linoleic acid and β-carotene was first prepared with Tween 20 (Sigma) and adjusted to pH 7.0 with 0.1 M trishydroxyaminomethane-hydrochloride. […] During the reaction, the color degradation of β-carotene in association with the autoxidation of linoleic acid was measured with the passage of time as the decreased value of the optical density at 460 nm with a spectrophotometer. […] The antioxidant activity was measured as a ratio of the decreasing rate of absorbance in the presence of the substance to be tested to the decreasing rate of absorbance in the absence of the antioxidant.

[3] = anti-oxidation activity in a lipid oxidation process promoted by a metal ion (copper sulfate); details: 5 μM copper sulfate added; lesser ratio = stronger
Protocol: The anti-oxidation activities was evaluated according to the method by A. Ben Aziz et al. (see Phytochemistry, 10, 1445, 1971). That is to say, an emulsion of linoleic acid and β-carotene was first prepared with Tween 20 (Sigma) and adjusted to pH 7.0 with 0.1 M trishydroxyaminomethane-hydrochloride. To the emulsion was added 0.0005% of a substance to be tested, and the mixture was reacted at 25° C.
During the reaction, the color degradation of β-carotene in association with the autoxidation of linoleic acid was measured with the passage of time as the decreased value of the optical density at 460 nm with a spectrophotometer.
The substance to be tested was a garcinal preparation obtained in Referential Example 1, and vitamin E and (+)-catechin were used as Comparative Example. The antioxidant activity was measured as a ratio of the decreasing rate of absorbance in the presence of the substance to be tested to the decreasing rate of absorbance in the absence of the antioxidant. That is, the substance is judged to have an antioxidant activity when the ratio is less than 1, and thus it is predicated that the lesser the ratio, the stronger the antioxidant activity.
The oxidation process of linoleic acid in Experimental Example 1 is promoted by a metal ion. If 5 μM of copper sulfate is added to the reaction system, the color-degradation rate of β-carotene is promoted by about 30%. When garcinol was added to this system, the ratio of the decreasing rate of absorbance was 0.57. In this connection, it was 0.13 for vitamin E and 0.84 for (+)-catechin.

[4] = DPPH radical scavenging activity; details: 0.0002% test substance, 1.0×10^-4 M DPPH, 25° C., 1 hour, 528 nm
Protocol: The 1,1-diphenyl-2-picrylhydrazyl (DPPH) radical scavenging activity was tested with a garcinol preparation prepared in the similar manner as described in Referential Example 1. That is to say, a 1.0×10^-4 M solution (50% ethanolic) of DPPH was prepared, 0.0002% of a test substance was added, and the decrease of optical density at 528 nm was measured after 1 hour reaction at 25° C. for one hour. In this case, ascorbic acid was used as a standard, the decrease of the absorbance was expressed as 100, and the radical scavenging activity of the test substance was measured as equivalences to ascorbic acid. In this connection, a garcinol preparaion used as the test substance, and vitamin E and (+)-catechin were used as references.

bovine serum albumin [5] = assay: Maillard reaction inhibiting activity (bovine serum albumin/D-fructose)
Protocol: as §3, §4, §5, §6, §7

gastric ulcer [6] = assay: anti-ulcer test against indomethacin-induced gastric ulcer; assay type: in vivo, Wistar/ST male rats; details: 200 mg/kg oral; for Length of ulcer: 30 minutes before indomethacin (50 mg/kg s.c.), control 47.75 ± 6.08; for Suppression rate: indomethacin ulcer, vs. control
Protocol: Ulcer was induced in Wistar/ST male rats having a weight of about 200 g (6 week-old) by indomethacin as a gastric ulcer inducing agent, and the anti-ulcer effects of the test samples were examined in the following six groups to which test samples were administered.
(§1) Each group comprises six rats.
______________________________________
(§2) Group 1: (control) physiological saline
Group 2: (comparative) cetraxate hydrochloride
Group 3: (the present invention) garcinol
Group 4: (the present invention) garcinol
Group 5: (the present invention) garcinol
Group 6: (the present invention) isogarcinol
In this connection, physiological saline containing 1% sodium carboxymethylcellulose was used as the control, and cetraxate hydrochloride (trade name "Neuer®S", Daiichi Pharmaceuticals Co., Ltd.) which is clinically used as an anti-ulcer agent was used as the comparative sample. The cetraxate hydrochloride insoluble in water was ground into fine powder with a mortar and a pestle and used as a suspension in a 1% sodium carboxymethylcellulose solution. Also, garcinol and isogarcinol in the form of fine powder were used as the suspensions in a 1% sodium carboxymethylcellulose solution in the concentrations which are the doses in the groups. In this connection, garcinol and isogarcinol used in the section of the present invention were those obtained in Referential Examples 1 and 2, respectively.
Experiment was carried out according to the method described by Yamahara et al. (see […] ZASSHI, 114, 401, 1994) which had been slightly modified. That is to say, indomethacin (50 mg/kg) was suspended in 1% sodium carboxymethylcellulose containing 0.1% Tween 20 (Sigma) and injected subcutaneously into the back of 24 hour fasted rats in an amount of 1 ml/rat. The samples in the six sections were orally administered at 30 minutes before administration of indomethacin. After 7 hours from the administration of indomethacin, rats were bleeded to death under anesthetization with nembutal, and stomach was isolated. A phosphate buffer (10 ml) containing 10% formalin was injected into the stomach, which was cut open after 10 minutes, and the length of lesion caused in the glandular stomach portion was defined as the lesion index, which was measured in the mm unit to evaluate the anti-ulcer effect. The suppression rate (%) in Table 1 means the value in which the difference of the length (mm) of ulcer in each group subtracted from the average length, 47.75 (mm) of ulcer in the control was divided with the average length, 47.75 (mm) of ulcer in the control. The larger the value, the stronger the anti-ulcer activity.

[7] = superoxide scavenging activity test with phenazine methosulfate; details: 40 μM final concentration
Protocol: The active oxygen scavenging activity was evaluated according to the superoxide scavenging activity test with phenazine methosulfate. That is to say, dihydronicotinamide adenine dinucleotide and phenazine methosulfate were first reacted in a buffer at a physiological hydrogen ion concentration. The absorbance at 560 nm of a formazan pigment produced by the reduction of Nitro Blue Tetrazolium with superoxide was measured. […] The ratio of decreases of absorbance was expressed as superoxide scavenging activity.

bovine serum albumin [8] = assay: suppression of generation of reactive oxygen species in the presence of metal ion (oxidation of bovine serum albumin in Fenton reaction); assay type: biochemical; details: 1 mM test substance, 10 μM copper ion, 20 mM hydrogen peroxide, 4 mg/ml BSA
Protocol: The activity for suppressing the generation of reactive oxygen species in the presence of metal ion was evaluated by measuring the effect for suppressing the oxidation of bovine serum albumin by hydroxyl radical in the Fenton reaction system. That is to say, hydroxyl radical was first produced by divalent copper ion and hydrogen peroxide (Fenton reaction). Bovine serum albumin was oxidized by the hydroxyl radical, and thus carbonyl was produced. The carbonyl was reacted with 2,4-dinitrophenylhydrazine, and determined by measuring the absorbance at 365 nm. […] The ratio of decreases of absorbance was expressed as the activity for suppressing the generation of reactive oxygen species in the presence of metal ion.

bovine lens α-crystallin = assay: α-crystallin crosslinking polymerization inhibiting activity; assay type: biochemical; details: 0.1 mM, 500 mM D-fructose, pH 7.4, 37° C., 2 weeks
Protocol: The effect of garcinol on bovine lens α-crystallin crosslinking polymerization reaction was evaluated. […] The gel after electrophoresis was stained with Coomassie Brilliant Blue, and the protein amounts in bands were determined with a densitometer. The crosslinking polymerization inhibiting activity of the protein was calculated from the following equation.
Protein polymerization inhibiting activity (%)=(Ps-Pc)/Pc×100
polymerization degree of protein=band density of polymerized protein/band density of monomer protein;
Ps: polymerization degree of protein in the presence of test substance;
Pc: polymerization degree of protein in the absence of test substance.

gastric ulcer [9] = assay: anti-ulcer test against stress ulcer (restrained immersion into water); assay type: in vivo, Wistar/ST male rats; details: 200 mg/kg oral
Protocol: Gastric ulcer was induced in Wistar/ST male rats having a weight of about 200 g (6 w) by the stress of restrained immersion into water and the anti-ulcer effects of the test samples were examined in the following groups to which test samples were administered.
as §1, §2
Group 2: (comparative) cetraxate hydrochloride 200 mg/kg
Group 3: (the present invention) garcinol 200 mg/kg
In this connection, the test samples in the control, comparative group and the present invention group were prepared in the same manner as in Experimental Example 9.
Rats having fasted for 24 hours were locked up in a restrained dipping cage after 30 minutes from the oral administration of respective test samples. Next, rats were stressed by dipping the cage into water at 23° C. for 7 hours, and bleeded to death under anesthetization with nembutal, and stomach was isolated. A phosphate buffer (10 ml) containing 10% formalin was injected into the stomach, which was cut open after 10 minutes, and the length of lesion caused in the glandular stomach portion was defined as the lesion index, which was measured in the mm unit to evaluate the anti-ulcer effect.
The method for calculating the suppression rate (%) and the meaning of it has been described in Experimental Example 9.

CC(C)(S)[C@@H](N)C(=O)O [D-penicillamine]
Maillard reaction inhibition activity (bovine serum albumin [1]): 27%

vitamin E
antioxidant activity (ratio of the decreasing rate of absorbance with to without test substance) [2]: 0.10
ratio of the decreasing rate of absorbance (antioxidant activity with metal ion) [3]: 0.13
DPPH radical scavenging activity (equivalences to ascorbic acid = 100) [4]: 25

N=C(N)NN [Aminoguanidine]
Maillard reaction inhibition activity, result in words (bovine serum albumin [5]; 0.1 mM, 37° C., 5 days, pH 7.4): no activity
Maillard reaction inhibition activity (bovine serum albumin [5]; 1 mM, 7200 min): no more than 43%

CC(C)=CC[C@H]1C[C@@]23C[C@@H](CC=C(C)C)C(C)(C)[C@@](CC=C(C)C)(C(=O)C(C(=O)c4ccc(O)c(O)c4)=C2OC1(C)C)C3=O [isogarcinol]
Length of ulcer (gastric ulcer [6]): 22.40 ± 15.3 mm
Suppression rate (gastric ulcer [6]): 53.1%

Oc1cc(O)c2c(c1)O[C@H](c1ccc(O)c(O)c1)[C@@H](O)C2 [(+)-catechin]
antioxidant activity (ratio of the decreasing rate of absorbance with to without test substance) [2]: 0.18
ratio of the decreasing rate of absorbance (antioxidant activity with metal ion) [3]: 0.84
DPPH radical scavenging activity (equivalences to ascorbic acid = 100) [4]: 73
superoxide scavenging rate [7]: 25%
oxidation of bovine serum albumin, result in words (bovine serum albumin [8]): promoted oxidation rather extensively

O=c1c(O)c(-c2ccc(O)c(O)c2)oc2cc(O)cc(O)c12 [quercetin]
superoxide scavenging rate [7]: 63%
oxidation of bovine serum albumin, result in words (bovine serum albumin [8]): promoted oxidation rather extensively
protein polymerization inhibiting activity (bovine lens α-crystallin): 33%

NC[C@H]1CC[C@H](C(=O)Oc2ccc(CCC(=O)O)cc2)CC1 [cetraxate hydrochloride, reference compound]
Length of ulcer (gastric ulcer [6]): 14.30 ± 10.9 mm
Suppression rate (gastric ulcer [6]): 70.1%
Length of ulcer (gastric ulcer [9]; restrained water immersion 23° C., 7 hours, control 44.20 ± 18.10): 18.80 ± 6.02 mm
Suppression rate (gastric ulcer [9]; stress ulcer, vs. control): 57.5%
